In PubChem BioAssay AID248 (DTP/NCI, 2004):
Values joined by “and” are separate entries in the source; they are usually repeats but may differ in a detail not shown here. Equal entries are not always repeated. Toxic doses and inconclusive results are not listed. No stated cut-off is given here; in the data, active means T/C of 150% or more; inactive means T/C below 125%.

System: L1210 leukemia ip in BDF1 mice, survival T/C
Assay: NCI In Vivo Anticancer Drug Screen. Data for tumor model L1210 Leukemia (intraperitoneal) in B6D2F1 (BDF1) mice
Details: endpoint: mean survival time, higher = longer survival
Method in brief: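 Each compound was tested against a transplantable tumor grown in mice. The endpoint was survival, with treated animals benchmarked against vehicle controls as a simple ratio.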

[1] = dose: 100.0 mg/kg/injection, schedule: Q01DX001 (ip), vehicle: saline
[2] = dose: 100.0 mg/kg/injection, schedule: Q04DX002 (ip), vehicle: saline
[3] = dose: 200.0 mg/kg/injection, schedule: Q01DX001 (ip), vehicle: saline
[4] = dose: 400.0 mg/kg/injection, schedule: Q01DX001 (ip), vehicle: saline
[5] = dose: 100.0 mg/kg/injection, schedule: Q01DX009 (ip), vehicle: saline with Tween-80
[6] = dose: 100.0 mg/kg/injection, schedule: Q04DX003 (ip), vehicle: saline with Tween-80
[7] = dose: 200.0 mg/kg/injection, schedule: Q01DX009 (ip), vehicle: saline with Tween-80
[8] = dose: 200.0 mg/kg/injection, schedule: Q04DX003 (ip), vehicle: saline with Tween-80
[9] = dose: 400.0 mg/kg/injection, schedule: Q01DX009 (ip), vehicle: saline with Tween-80
[10] = dose: 400.0 mg/kg/injection, schedule: Q04DX003 (ip), vehicle: saline with Tween-80
[11] = dose: 100.0 mg/kg/injection, schedule: Q04DX002 (ip), vehicle: saline with Tween-80
[12] = dose: 200.0 mg/kg/injection, schedule: Q04DX002 (ip), vehicle: saline with Tween-80
[13] = dose: 400.0 mg/kg/injection, schedule: Q04DX002 (ip), vehicle: saline with Tween-80
[14] = dose: 50.0 mg/kg/injection, schedule: Q01DX009 (ip), vehicle: saline
[15] = dose: 100.0 mg/kg/injection, schedule: Q01DX009 (ip), vehicle: saline
[16] = dose: 200.0 mg/kg/injection, schedule: Q01DX009 (ip), vehicle: saline
[17] = dose: 100.0 mg/kg/injection, schedule: Q01DX009 (ip), vehicle: Klucel (hydroxypropylcellulose) (HPC)
[18] = dose: 100.0 mg/kg/injection, schedule: Q04DX002 (ip), vehicle: Klucel (hydroxypropylcellulose) (HPC)
[19] = dose: 100.0 mg/kg/injection, schedule: Q04DX003 (ip), vehicle: Klucel (hydroxypropylcellulose) (HPC)
[20] = dose: 200.0 mg/kg/injection, schedule: Q01DX009 (ip), vehicle: Klucel (hydroxypropylcellulose) (HPC)
[21] = dose: 200.0 mg/kg/injection, schedule: Q04DX002 (ip), vehicle: Klucel (hydroxypropylcellulose) (HPC)
[22] = dose: 200.0 mg/kg/injection, schedule: Q04DX003 (ip), vehicle: Klucel (hydroxypropylcellulose) (HPC)
[23] = dose: 400.0 mg/kg/injection, schedule: Q01DX009 (ip), vehicle: Klucel (hydroxypropylcellulose) (HPC)
[24] = dose: 400.0 mg/kg/injection, schedule: Q04DX002 (ip), vehicle: Klucel (hydroxypropylcellulose) (HPC)
[25] = dose: 400.0 mg/kg/injection, schedule: Q04DX003 (ip), vehicle: Klucel (hydroxypropylcellulose) (HPC)
[26] = dose: 100.0 mg/kg/injection, schedule: Q04DX003 (ip), vehicle: saline
[27] = dose: 200.0 mg/kg/injection, schedule: Q04DX003 (ip), vehicle: saline

Measured: T/C

CC[N+]1(CC)CC[N+](CC)(CC)CC1
inactive: [1] 97 % of control | [2] 96 % of control | [3] 97 % of control | dose: 200.0 mg/kg/injection, schedule: Q04DX002 (ip), vehicle: saline 96 % of control | [4] 102 % of control | dose: 400.0 mg/kg/injection, schedule: Q04DX002 (ip), vehicle: saline 107 % of control

O=C1c2cc(Br)ccc2-c2c(F)cc(Br)cc21
inactive: dose: 50.0 mg/kg/injection, schedule: Q01DX001 (ip), vehicle: carboxymethylcellulose (CMC) 105 % of control | dose: 100.0 mg/kg/injection, schedule: Q01DX001 (ip), vehicle: carboxymethylcellulose (CMC) 100 % of control | dose: 200.0 mg/kg/injection, schedule: Q01DX001 (ip), vehicle: carboxymethylcellulose (CMC) 100 % of control | dose: 400.0 mg/kg/injection, schedule: Q01DX001 (ip), vehicle: carboxymethylcellulose (CMC) 94 % of control

O=C(Nc1ccccc1)c1cc(Cl)ccc1O
inactive: [5] 95 % of control | [6] 86 % of control | [7] 95 % of control | [8] 94 % of control | [9] 95 % of control | [10] 87 % of control

CCOC(=O)/C(C)=N/O
inactive: [11] 96 % of control | [12] 116 % of control | [13] 104 % of control

CC1CC(C)(C)OC(C(Cl)(Cl)Cl)O1 (stereo not given)
inactive: [14] 98 % of control | [15] 93 % of control | dose: 100.0 mg/kg/injection, schedule: Q04DX003 (ip), vehicle: acetone 112 % of control | [16] 93 % of control | dose: 200.0 mg/kg/injection, schedule: Q04DX003 (ip), vehicle: acetone 106 % of control | dose: 400.0 mg/kg/injection, schedule: Q04DX003 (ip), vehicle: acetone 103 % of control

Cc1ccnc(NC(=O)Nc2cc(F)ccc2F)c1
inactive: [17] 92 % of control and 103 % of control | [18] 101 % of control and 90 % of control | [19] 97 % of control | [20] 92 % of control and 89 % of control | [21] 90 % of control | [22] 93 % of control | [23] 94 % of control and 98 % of control | [24] 95 % of control and 90 % of control | [25] 87 % of control

CC(C)(C)CC(C)(C)c1ccc(OCCOc2ccccc2NS(=O)(=O)c2ccc(N)cc2)cc1
inactive: [14] 94 % of control | [15] 91 % of control | [16] 91 % of control

O=C(NC(=S)Nc1cccc(F)c1)c1cccc([N+](=O)[O-])c1
inactive: dose: 100.0 mg/kg/injection, schedule: Q01DX001 (ip), vehicle: saline with Tween-80 98 % of control | [5] 94 % of control and 95 % of control | [11] 101 % of control and 111 % of control | [6] 98 % of control | dose: 200.0 mg/kg/injection, schedule: Q01DX001 (ip), vehicle: saline with Tween-80 93 % of control | [7] 98 % of control and 90 % of control | [12] 92 % of control and 96 % of control | [8] 102 % of control | [9] 92 % of control and 94 % of control | [13] 101 % of control and 103 % of control | [10] 101 % of control

CCN(CC)Cc1ncccc1O
inactive: dose: 50.0 mg/kg/injection, schedule: Q01DX009 (ip), vehicle: Klucel (hydroxypropylcellulose) (HPC) 106 % of control | [17] 106 % of control | [19] 105 % of control | [20] 93 % of control | [22] 104 % of control

CC(C)(C)NC(=O)Nc1nccs1
inactive: dose: 100.0 mg/kg/injection, schedule: Q01DX009 (ip), vehicle: other 100 % of control | dose: 200.0 mg/kg/injection, schedule: Q01DX009 (ip), vehicle: other 107 % of control

CS(=O)(=O)CC(=O)c1ccccc1
inactive: dose: 37.5 mg/kg/injection, schedule: Q01DX009 (ip), vehicle: saline with Tween-80 87 % of control | dose: 75.0 mg/kg/injection, schedule: Q01DX009 (ip), vehicle: saline with Tween-80 90 % of control | [6] 95 % of control | dose: 150.0 mg/kg/injection, schedule: Q01DX009 (ip), vehicle: saline with Tween-80 87 % of control | [8] 96 % of control

Cc1ccc(NC(=O)Oc2cccc(C(F)(F)F)c2)cc1
inactive: [17] 100 % of control | [20] 98 % of control | [23] 100 % of control

O=C1O/C(=C\c2ccccc2)c2ccccc21
inactive: [1] 101 % of control | [5] 94 % of control | [3] 94 % of control | [7] 97 % of control | [4] 99 % of control | [9] 94 % of control

O=[N+]([O-])c1ccc2c3c(cccc13)CC2
inactive: [1] 102 % of control | [3] 96 % of control | [4] 90 % of control

O=C1C2(c3ccccc3)C(c3ccccc3)=C(c3ccccc3)C1(c1ccccc1)C1CC=CC12 (stereo not given)
inactive: [5] 98 % of control | [6] 96 % of control | [7] 100 % of control | [8] 104 % of control | [10] 96 % of control

CCCC/C=C/CCCC
inactive: dose: 75.0 mg/kg/injection, schedule: Q01DX009 (ip), vehicle: saline 100 % of control | dose: 300.0 mg/kg/injection, schedule: Q01DX009 (ip), vehicle: saline 86 % of control

C1CCC2(CC1)COC1(OC2)OCC2(CCCCC2)CO1
inactive: [18] 97 % of control | [21] 101 % of control | [24] 90 % of control

COc1ccccc1N1C(=O)CSC1=S
inactive: [5] 102 % of control | [7] 106 % of control | [9] 100 % of control

CN(CCc1ccccc1)/N=N/c1[nH]ncc1C(N)=O
inactive: dose: 100.0 mg/kg/injection, schedule: Q01DX001 (ip), vehicle: Klucel (hydroxypropylcellulose) (HPC) 108 % of control | [17] 103 % of control | [19] 105 % of control | dose: 200.0 mg/kg/injection, schedule: Q01DX001 (ip), vehicle: Klucel (hydroxypropylcellulose) (HPC) 105 % of control | [20] 106 % of control | [22] 97 % of control | dose: 400.0 mg/kg/injection, schedule: Q01DX001 (ip), vehicle: Klucel (hydroxypropylcellulose) (HPC) 113 % of control | [25] 100 % of control | dose: 600.0 mg/kg/injection, schedule: Q01DX009 (ip), vehicle: Klucel (hydroxypropylcellulose) (HPC) 105 % of control

CCCCCCCCCCCCCCCCSCCOC(=O)C1C2CCC(O2)C1C(=O)O (stereo not given)
inactive: dose: 12.5 mg/kg/injection, schedule: Q01DX001 (ip), vehicle: Klucel (hydroxypropylcellulose) (HPC) 107 % of control | dose: 25.0 mg/kg/injection, schedule: Q01DX001 (ip), vehicle: Klucel (hydroxypropylcellulose) (HPC) 101 % of control | dose: 50.0 mg/kg/injection, schedule: Q01DX001 (ip), vehicle: Klucel (hydroxypropylcellulose) (HPC) 98 % of control

S=C(c1ccccc1)N(c1ccccc1)C1CCCCC1
inactive: dose: 100.0 mg/kg/injection, schedule: Q04DX003 (ip), vehicle: gum acacia 91 % of control | dose: 200.0 mg/kg/injection, schedule: Q04DX003 (ip), vehicle: gum acacia 88 % of control | dose: 400.0 mg/kg/injection, schedule: Q04DX003 (ip), vehicle: gum acacia 88 % of control

CC(C)CCSc1nc(N)nc2nc[nH]c12
inactive: dose: 62.5 mg/kg/injection, schedule: Q01DX Z (ip), vehicle: carboxymethylcellulose (CMC) 122 % of control | dose: 125.0 mg/kg/injection, schedule: Q01DX Z (ip), vehicle: carboxymethylcellulose (CMC) 107 % of control | dose: 250.0 mg/kg/injection, schedule: Q01DX Z (ip), vehicle: carboxymethylcellulose (CMC) 100 % of control

C[N+]1(C2CCC3CCC2C3O)CCCCC1 (stereo not given)
inactive: [14] 100 % of control | [15] 110 % of control | [26] 101 % of control | [16] 110 % of control | [27] 101 % of control

O=C1CC2=C(CC(O)=CC=C2)C(=O)O1
inactive: [26] 104 % of control | [27] 100 % of control | dose: 400.0 mg/kg/injection, schedule: Q04DX003 (ip), vehicle: saline 93 % of control

CCOC(CCl)[N+](C)(C)C (stereo not given)
inactive: [2] 91 % of control

Cc1ccc(S(=O)(=O)N(C)c2cc(Cl)c(C#N)cc2Cl)cc1
inactive: [19] 97 % of control | [22] 97 % of control | [25] 100 % of control
